Results from PMC3606385 (PLoS ONE, 2013).
Entries after “also recorded” stand apart in the source; their conditions may differ. Marks after values point to notes of the source that are not given here.

What was measured:
Human 11β-HSD1 = target: T1, Human 11β-HSD1 (Homo sapiens, UniProt P28845); experiment: 11β-HSD1 assay in microsomes from CHOP cells transfected with human HSD11B1; assay type: biochemical
T1 construct: expressed in transfected cells; host or cells: CHOP cells (transient, FuGENE)
T1 sequence (P28845 whole entry): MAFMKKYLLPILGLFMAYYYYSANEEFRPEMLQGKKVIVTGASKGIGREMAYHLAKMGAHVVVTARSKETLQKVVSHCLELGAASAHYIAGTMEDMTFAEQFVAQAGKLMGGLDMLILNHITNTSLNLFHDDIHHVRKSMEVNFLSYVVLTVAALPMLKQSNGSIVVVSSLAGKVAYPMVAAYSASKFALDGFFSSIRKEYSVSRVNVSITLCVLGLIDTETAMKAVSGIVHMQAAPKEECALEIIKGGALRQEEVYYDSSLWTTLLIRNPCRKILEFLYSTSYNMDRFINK
Method: An expression plasmid was constructed to express human 11β-HSD1 (HSD11B1) cDNA in pcDNA I expression vector from its original human HSD11B1 vector (pBluescriptSK+).[15]. The Escherichia coli transformants carrying an insert were selected by colony hybridization, and a clone with the insert in the correct orientation relative to the vector T7 promoter was identified by restriction mapping. All transfections were carried out on 80% confluent cultures in 12-well plates. Aliquots of 1 µg HSD11B1 pcDNA I were transfected into mammalian CHOP cells with the FuGENE Transfection Reagent (Roche) according to manufacturer's protocol. Cells were allowed to grow for 24 hours in media containing 10% fetal bovine serum. Then media were removed and cells were harvested for 11β-HSD1 activity assay.
(§1) The rat testis and liver or human liver microsomes were used for 11β-HSD1 assay. 11β-HSD1 activity was performed in the microsome according to a previously described method. […] 2 µg microsomes were added to each tube to initiate the reaction and the reaction mixture was incubated for up to 2 hrs, during which the reaction is within the linear range. The rest procedure was similar to 11β-HSD1 assay in intact cells.
(§2) The IC50 was determined by adding different concentrations of each compound in the 11β-HSD1 or 11β-HSD2 reaction as described. The mode of inhibition was assayed by adding various concentrations of steroid substrates in the presence of an inhibitor as described.

[1] = system: Sprague-Dawley rats with high-fat-diet-induced metabolic syndrome; experiment: High-fat-diet-induced metabolic syndrome treatment in rats; assay type: in vivo, rat; details: for Effect on serum LDL / Effect on serum glucose / Effect on serum total cholesterol / Effect on serum triglyceride (Tg): 200 mg/kg
Method: By the end of curcumin treatment, rats were euthanized. The body, liver, kidney and testis weights were recorded. Sera were collected after placing the bloods at room temperature for 25 min and centrifuged at 1500 g/min for 20 minutes. Sera were used for measurement of serum glucose, and lipid analysis. Serum glucose, total cholesterol, low density […], apolipoprotein A1 is (APOA1) and apolipoprotein B (APOB) were measured using a Hitachi 7600 biochemical analyzer (Hitachi, Japan) according to standard clinical protocol.

human liver 11β-HSD1 = target: T2, human liver 11β-HSD1 (Homo sapiens, UniProt P28845); experiment: Mode of inhibition, human liver 11β-HSD1; assay type: biochemical; details: data not shown
T2 construct: tissue Gentest (Woburn, MA); host or cells: human liver microsomes
T2 sequence (P28845 whole entry): as above
Method: The rat testis and liver or human liver microsomes were used for 11β-HSD1 assay. 11β-HSD1 activity was performed in the microsome according to a previously described method. In brief, the assay tubes contained 25 nM substrate 11DHC (for rat) or cortisone (for human), spiked with 30,000 cpm their respective ^3H-11keto-steroid, 0.2 mM NADPH and 5 mM glucose-6-phosphaare in the PBS buffer. 2 µg microsomes were added to each tube to initiate the reaction and the reaction mixture was incubated for up to 2 hrs, during which the reaction is within the linear range. The rest procedure was similar to 11β-HSD1 assay in intact cells.
as §2
Enzyme data were subjected to nonlinear analysis by GraphPad (Version 5, GraphPad Software Inc., San Diego, CA) for IC50. Lineweaver-Burk plot was used for the mode of inhibition. Data were subjected to analysis by one-way ANOVA followed by Tukey's multiple comparisons testing to identify significant differences between groups when three were calculated. Differences were regarded as significant at P<0.05.

diabetic rats = details: normal or high fat diet; cited from earlier work
Rat 11β-HSD1 = target: T3, Rat 11β-HSD1 (Rattus norvegicus, UniProt P16232); experiment: 11β-HSD1 assay in adult rat testis microsomes; assay type: biochemical
T3 construct: endogenous in cells; host or cells: primary adult Sprague-Dawley rat Leydig cells
T3 sequence (P16232 whole entry): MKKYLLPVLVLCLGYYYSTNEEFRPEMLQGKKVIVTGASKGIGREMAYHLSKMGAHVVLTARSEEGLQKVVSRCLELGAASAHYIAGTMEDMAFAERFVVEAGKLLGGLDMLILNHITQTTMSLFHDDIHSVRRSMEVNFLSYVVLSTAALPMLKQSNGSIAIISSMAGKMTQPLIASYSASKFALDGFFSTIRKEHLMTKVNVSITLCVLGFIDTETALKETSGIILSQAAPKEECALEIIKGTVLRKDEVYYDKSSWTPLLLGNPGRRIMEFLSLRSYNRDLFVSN
Method: Rats were euthanized by CO2, and livers, testes and kidneys were collected. Rat liver, testis and kidney microsomes were prepared as described previously. In brief, rat liver and kidney were homogenized in […] PBS buffer containing 0.25 M sucrose, and nuclei and large cell debris were removed by centrifugation at 1500× g for 10 min. The post-nuclear supernatants were centrifuged twice at 105,000×g, the resultant microsomal pellets were resuspended. Protein contents were measured by Bio-Rad Dye Reagent Concentrate (Cat.#500-0006). Microsomes were used for measurement of 11β-HSD1 and 11β-HSD2 activities.
as §1, §2

db/db mice = details: cited from earlier work
[2] = HFD rats, 200 mg/kg curcumin, 2 months, vs HFD
[3] = HFD rats, 200 mg/kg curcumin, 2 months, vs HFD, listed as Curcumin
[4] = HFD rats, 200 mg/kg curcumin, 2 months, vs HFD, listed as curcumin
[5] = HFD rats, 200 mg/kg/day gavage, 2 months, Mean ± SEM, n = 10

## COc1cc(/C=C/C(=O)CC(=O)/C=C/c2ccc(O)c(OC)c2)ccc1O [1 (Curcumin), Curcumin]
Human 11β-HSD1
  IC50: 10.6 ± 7.17 µM
[1]; 200 mg/kg/day oral, HFD rats
  Effect on lipid profiles / HFD-induced dyslipidemia: effectively improved; also recorded: effectively prevented
[1]; [2]
  Effect on serum APOA1: significantly lowered
  Effect on serum APOB: significantly lowered
[1]; [3]
  Effect on serum LDL: reduced
  Effect on serum glucose: reduced
  Effect on serum total cholesterol: reduced
  Effect on serum triglyceride (Tg): reduced
[1]; [4]
  Effect on serum LDL: significantly lowered
  Effect on serum glucose: significantly lowered
  Effect on serum total cholesterol: significantly lowered
  Effect on serum triglyceride (Tg): significantly lowered
[1]; [5]
  Body weight (g): 324.8±6.614^b g
  Kidney(g): 1.309±0.0756^a g
  Liver(g): 10.67±0.297^a g
  Testis(g): 2.664±0.1012^a g
  Weight Gain(g): 136.3±6.516^c g
[1]; two months of treatment
  Effect on HFD-induced increase of body weight gain: reduced
  Effect on HFD-induced increase of liver weight: reduced
  Effect on kidney weight: did not affect
  Effect on testis weight: did not affect
[1]; two-month treatment, 200 mg/kg/day
  Adverse effects during treatment: no adverse effects
Human liver 11β-HSD1
  Mode of inhibition of human 11β-HSD1: competitive inhibitor
Diabetic rats
  Effect on serum Tg: remarkably reduced
  Effect on serum cholesterol: remarkably reduced
Rat 11β-HSD1
  IC50: 4.18 ± 0.24 µM
db/db mice
  Effect on body weights: lowered
  Effect on insulin resistance: corrected
  Effect on serum glucose levels: significantly reduced
